Measured values as given in US20250381242A1 (INVAIO SCIENCES, INC., priority 2024, published 2025).
No end group written: not given here.

Legend:
X. citri = assay: Bacterial growth inhibition by OD600 absorbance, X. citri; assay type: cell-based, X. citri subsp. citri (ATCC 49118); details: peptide 10 μM, 24 hours at 30° C., OD 600 nm
E. amylovora = details: 24 h, 10 μM
L. crescens = details: 10 μM
A. tumefaciens = details: 24 h, 10 μM
E. coli = assay: Bacterial growth inhibition by OD600 absorbance, E. coli; assay type: cell-based, E. coli (DH5-alpha); details: peptide 10 μM, 24 hours at 37° C., OD 600 nm
Procedure, shortened: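 Peptides added to bacterial culture at 10 μM final (0.1% DMSO); X. citri grown at 30° C., E. coli at 37° C., for 24 h. OD600 read before and after growth; percent inhibition derived relative to 0.1% DMSO negative and oxytetracycline/streptomycin positive controls.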

Row | Sequence | growth inhibition, X. citri (X. citri) | growth inhibition, E. amylovora (E. amylovora) | growth inhibition, L. crescens (L. crescens) | growth inhibition, A. tumefaciens (A. tumefaciens) | growth inhibition, E. coli (E. coli)
1 | GMWKKILGKLIR [compound 134] | <90% | 100.00% | <90% | 100.00% | <90%
2 | GMWSKLLGHLLR [compound 138] | <90% | 100.00% | <90% | 100.00% | <90%
3 | GWKDWAKKAGGWLKKKGPGMAKAALKAAMQ [compound 2] | 100.00% | 100.00% | <90% | 100.00% | <90%
4 | GWKKWLRKGAKHLGQAAIKGLAS [compound 46] | 100.00% | 100.00% | <90% | 100.00% | 100.00%
5 | GWWRRTVDKVRNAGRKVAGFASKACGALGH [compound 13] | 100.00% | 100.00% | 100.00% | 100.00% | 100.00%
6 | GYNYAKKLANLAKKFANALW [compound 66] | 100.00% | 97.23% | <90% | 99.99% | <90%
7 | IKKILSKIKKLLK [compound 122] | 100.00% | 93.74% | <90% | 97.95% | <90%
8 | INWKKIASIGKEVLKAL [compound 94] | <90% | 100.00% | <90% | 100.00% | <90%
9 | IRIRIRPIRIRIRP [compound 98] | <90% | 99.58% | <90% | 99.18% | 99.61%
10 | IWSFLIKAATKLLPSLFGGGKKDS [compound 39] | 100.00% | <90% | 92.47% | <90% | 100.00%
11 | KFFKRLLKSVRRAVKKFRKKPRLIGLSTLL [compound 8] | 100.00% | 100.00% | <90% | 99.88% | 100.00%
12 | KFLKKAKKFGKAFVKIL [compound 83] | <90% | 100.00% | <90% | 99.31% | <90%
13 | KFWSLLKKALRLWANVL [compound 76] | 100.00% | 100.00% | 99.76% | 100.00% | 100.00%
14 | KILKRLAAKIKKIL [compound 113] | 100.00% | <90% | <90% | <90% | <90%
15 | KKFLHSAKKWLKAFVKLFKNW [compound 33] | 100.00% | <90% | 96.12% | 100.00% | 100.00%
16 | KKIGKKAAKKVIVKAIQAIV [compound 73] | <90% | 99.94% | <90% | <90% | <90%
17 | KKLIKVFAKGFKKAKKLFKGIG [compound 52] | 100.00% | 100.00% | <90% | 100.00% | <90%
18 | KLLKKAGKLLKKAGKLLKKAG [compound 71] | 100.00% | 100.00% | <90% | 100.00% | <90%
19 | KNWKGIAGMAKKLLGKNWKLM [compound 59] | 100.00% | 100.00% | <90% | 99.61% | <90%

Row | Sequence | growth inhibition, X. citri (X. citri) | growth inhibition, E. amylovora (E. amylovora) | growth inhibition, L. crescens (L. crescens) | growth inhibition, A. tumefaciens (A. tumefaciens) | growth inhibition, E. coli (E. coli)
20 | KWAVRIIRKFIKGFIS [compound 88] | <90% | 100.00% | <90% | 100.00% | 96.20%
21 | KWKSFIKKLTKKFLHSAKKF [compound 49] | 100.00% | 100.00% | <90% | 100.00% | <90%
22 | KWKSFIKNLEKVLKKGPILANLVSIV [compound 23] | 100.00% | 100.00% | 99.03% | 100.00% | 100.00%
23 | KWLKKWLKKWLK [compound 103] | <90% | 100.00% | <90% | 100.00% | 98.34%
24 | KWVKKWVKKWVK [compound 110] | 100.00% | 98.51% | <90% | <90% | <90%
25 | KWYKKWYKKWYKKWYK [compound 54] | 100.00% | 100.00% | <90% | 99.49% | 100.00%
26 | LHRLVKLVAALLRGYASKVDTH [compound 53] | 100.00% | 100.00% | <90% | 100.00% | 100.00%
27 | LNWGALLKHLLK [compound 139] | <90% | 100.00% | <90% | 100.00% | <90%
28 | LRFLKKALKKLF [compound 129] | <90% | 93.29% | <90% | 98.87% | <90%
29 | LRFLKKILKHLF [compound 120] | 100.00% | 100.00% | <90% | 100.00% | 100.00%
30 | LVQRGRFGRFLKKVRRFIPKVIIAAQIGSRFG [compound 6] | 100.00% | 98.64% | <90% | 100.00% | 99.36%
31 | QKRPRVRLSAWKKIWKPGIKKWIK [compound 21] | 100.00% | 100.00% | <90% | 96.97% | <90%
32 | RFRRLFRIRVRVLKKI [compound 72] | 100.00% | 100.00% | <90% | 100.00% | <90%
33 | RKYVRFLHRWVKYFRAYL [compound 47] | <90% | <90% | <90% | <90% | 99.75%
34 | RWKIFKKPFKISIHL [compound 90] | <90% | 100.00% | <90% | 100.00% | 98.69%
35 | SWKSMAKKLKEYMEKLKQRA [compound 50] | <90% | 100.00% | <90% | 99.59% | <90%
36 | WFGHLYRGITKVVKHVHGLLKG [compound 40] | 100.00% | 100.00% | <90% | 100.00% | 100.00%
37 | WFGKLYRGITSVVKKVKGLLSG [compound 55] | 100.00% | 100.00% | <90% | 100.00% | 100.00%
38 | WIKIWKKIIKKWKK [compound 91] | <90% | 100.00% | <90% | 98.97% | <90%
